Measured values taken from patent US8415475B2, “Antibacterial quinoline derivatives” (Janssen Pharmaceutica N.V., priority 2006, dated 2013).
Values after ≈ are worked out from the molar mass of the structure shown.

Key:
[1] = tested on: Streptococcus pyogens (ATCC8668); assay: In-vitro anti-bacterial microtitre plate assay, IC90, S. pyogens; type: cell-based; settings: 90% inhibitory concentration for bacterial growth, resazurin fluorescence; for IC90: Streptococcus, ATCC8668, 24 h, read-out: IC90 values SPY 8668; for IC90 values SPY 8668: 24 hours
Experimental: (§1) D.3. In-Vitro Method for Testing Compounds for Anti-Bacterial Activity Against Various Non-Mycobacterial Strains The bacteria used in this study were grown overnight in flasks containing 100 ml Mueller-Hinton Broth (Becton Dickinson-cat. no. 275730) in sterile de-ionized water, with shaking, at 37° C. Stocks (0.5 ml/tube) were stored at -70° C. until use. Bacteria titrations were performed in microtiter plates to detect the TCID50, in which the TCID50 represents the dilution that gives rise to bacterial growth in 50% of inoculated cultures. In general, an inoculum level of approximately 100 TCID50 was used for susceptibility testing. Flat-bottom, sterile 96-well plastic microtiter plates were filled with 180 μl of sterile deionized water, supplemented with 0.25% BSA. Subsequently, stock solutions (7.8× final test concentration) of compounds were added in 45 μl volumes in column 2. Serial five-fold dilutions (45 μl in 180 μl) were made directly in the microtiter plates from column 2 to reach column 11. Untreated control samples with (column 1) and without (column 12) inoculum were included in each microtiter plate. Depending on the bacteria type, approximately 10 to 60 CFU per well of bacteria inoculum (100 TCID50), in a volume of 100 μl in 2.8× Mueller-Hinton broth medium, was added to the rows […]. The same volume of broth medium without inoculum was added to column 12 in row A to H. The cultures were incubated at 37° C. for 24 hours under a normal atmosphere (incubator with open air valve and continuous ventilation). At the end of incubation, one day after inoculation, the bacterial growth was quantitated fluorometrically. Therefore resazurin (0.6 mg/ml) was added in a volume of 20 μl to all wells 3 hours after inoculation, and the plates were re-incubated overnight. A change in colour from blue to pink indicated the growth of bacteria. The fluorescence was read in a computer-controlled fluorometer (Cytofluor Biosearch) at an excitation wavelength of 530 nm and an emission wavelength of 590 nm. The % growth inhibition achieved by the compounds was calculated according to standard methods.

M. Smegmatis (ATCC607) = assay: In-vitro anti-bacterial activity against strain M. smegmatis ATCC607; type: cell-based; settings: 90% inhibitory concentration for bacterial growth, Alamar Blue fluorescence; for IC90 values MSM 1 ATCC607: 48 hours; for IC90: Mycolicibacterium smegmatis, ATCC607, 48 h, read-out: IC90 values MSM 1 ATCC607
Experimental: D.2. In-Vitro Method for Testing Compounds for Anti-Bacterial Activity Against Strain M. smegmatis ATCC607. Flat-bottom, sterile 96-well plastic microtiter plates were filled with 180 μl of sterile deionized water, supplemented with 0.25% BSA. Subsequently, stock solutions (7.8× final test concentration) of compounds were added in 45 μl volumes to a series of duplicate wells in column 2 so as to allow evaluation of their effects on bacterial growth. Serial five-fold dilutions (45 μl in 180 μl) were made directly in the microtiter plates from column 2 to 11 using a customised robot system (Zymark Corp., Hopkinton, Mass.). Pipette tips were changed after every 3 dilutions to minimize pipetting errors with high hydrophobic compounds. Untreated control samples with (column 1) and without (column 12) inoculum were included in each microtiter plate. Approximately 250 CFU per well of bacteria inoculum, in a volume of 100 μl in 2.8× Mueller-Hinton broth medium, was added to the rows […]. The same volume of broth medium without inoculum was added to column 12 in row A to H. The cultures were incubated at 37° C. for 48 hours in a humidified 5% CO2 atmosphere (incubator with open air valve and continuous ventilation). At the end of incubation, two days after inoculation, the bacterial growth was quantitated fluorometrically. Therefore Alamar Blue (10×) was added to all wells in a volume of 20 μl and plates were incubated for another 2 hours at […] The fluorescence was read in a computer-controlled fluorometer (Cytofluor, Biosearch) at an excitation wavelength of 530 nm and an emission wavelength of 590 nm (gain 30).

[2] = tested on: Escherichia coli (ATCC35218); assay: In-vitro anti-bacterial microtitre plate assay, IC90, E. coli; type: cell-based; settings: 90% inhibitory concentration for bacterial growth, resazurin fluorescence; for IC90: Escherichia coli, ATCC35218, 24 h, read-out: IC90 values ECO 35218; for IC90 values ECO 35218: 24 hours
Experimental: as §1

[3] = tested on: Streptococcus pneumoniae (ATCC6305); assay: In-vitro anti-bacterial microtitre plate assay, IC90, S. pneumoniae; type: cell-based; settings: 90% inhibitory concentration for bacterial growth, resazurin fluorescence; for IC90 values SPN 1 6305: 24 hours; for IC90: Streptococcus pneumoniae, ATCC6305, 24 h, read-out: IC90 values SPN 1 6305
Experimental: as §1

[4] = tested on: Enterococcus faecalis (ATCC29212); assay: In-vitro anti-bacterial microtitre plate assay, IC90, E. faecalis; type: cell-based; settings: 90% inhibitory concentration for bacterial growth, resazurin fluorescence; for IC90: Enterococcus faecalis, ATCC29212, 24 h, read-out: IC90 values EFA 29212; for IC90 values EFA 29212: 24 hours
Experimental: as §1

[5] = tested on: Staphylococcus aureus (ATCC29213); assay: In-vitro anti-bacterial microtitre plate assay, IC90, S. aureus; type: cell-based; settings: 90% inhibitory concentration for bacterial growth, resazurin fluorescence; for IC90: Staphylococcus aureus, ATCC29213, 24 h, read-out: IC90 values STA 1 B29213; for IC90 values STA 1 B29213: 24 hours
Experimental: as §1

[6] = tested on: Mycobacterium tuberculosis (strain H37RV); assay: In-vitro method for testing compounds against M. tuberculosis; type: cell-based; settings: 90% inhibitory concentration for bacterial growth, 7 days, Middlebrook broth, resazurin fluorescence; for IC90: Mycobacterium tuberculosis, H37RV, 168 h, read-out: IC90 values MTB 1 H37RV
[7] = tested on: Pseudomonas aeruginosa (ATCC27853); assay: In-vitro anti-bacterial microtitre plate assay, IC90, P. aeruginosa; type: cell-based; settings: 90% inhibitory concentration for bacterial growth, resazurin fluorescence; for IC90: Pseudomonas aeruginosa, ATCC27853, 24 h, read-out: IC90 values PAE 27853
Experimental: as §1

Row | Structure (SMILES) | IC90 [1] | IC90 values MSM 1 ATCC607 (M. Smegmatis (ATCC607)) | IC90 [2] | IC90 values SPN 1 6305 [3] | IC90 [4] | IC90 [5] | IC90 [6] | IC90 [7] | IC90 values STA 1 B29213 [5] | IC90 values SPY 8668 [1] | IC90 values EFA 29212 [4] | melting point | IC90 values MTB 1 H37RV [6] | IC90 (M. Smegmatis (ATCC607)) | IC90 [3] | IC90 values ECO 35218 [2] | IC90 values PAE 27853 ([7]; 24 hours)
1 | COc1nc2ccc(N3CCOCC3)cc2cc1C(c1ccccc1)C(O)(CCN(C)C)c1ccccc1 (single isomer, unassigned) [Compound 5] | 40.6 mg/L (≈ 79.4 µM) | 0.04 mg/L (≈ 0.0782 µM) | 51.2 mg/L (≈ 100 µM) | 9.1 mg/L (≈ 17.8 µM) | 40.6 mg/L (≈ 79.4 µM) | 40.6 mg/L (≈ 79.3 µM) |  |  |  |  |  |  |  |  |  |  | 
2 | C=Cc1ccc2nc(OC)c(C(c3ccccc3)C(O)(CCN(C)C)c3cccc4ccccc34)cc2c1 (single isomer, unassigned) [Compound 8] | 50.3 mg/L (≈ 100 µM) |  | 50.3 mg/L (≈ 100 µM) | 2.0 mg/L (≈ 3.98 µM) | 50.3 mg/L (≈ 100 µM) |  | 3.6 mg/L (≈ 7.16 µM) | 44.8 mg/L (≈ 89.1 µM) | 50.3 mg/L (≈ 100 µM) |  |  |  |  |  |  |  | 
3 | C/C=C/c1ccc2nc(OC)c(C(c3ccccc3)C(O)(CCN(C)C)c3cccc4ccccc34)cc2c1 (single isomer, unassigned) [Compound 11] |  | 0.01 mg/L (≈ 0.0194 µM) |  | 1.8 mg/L (≈ 3.48 µM) |  |  |  | 51.7 mg/L (≈ 100 µM) | 51.7 mg/L (≈ 100 µM) | 51.67 mg/L (≈ 100 µM) | 51.67 mg/L (≈ 100 µM) | 190 °C |  |  |  |  | 
4 | COc1nc2ccc(N)cc2cc1C(c1ccccc1)C(O)(CCN(C)C)c1cccc2ccccc12 (single isomer, unassigned) [Compound 15] |  | 0.3 mg/L (≈ 0.61 µM) |  | 7.8 mg/L (≈ 15.9 µM) |  |  |  |  | 7.8 mg/L (≈ 15.9 µM) |  |  | 205 °C | 1.6 mg/L (≈ 3.25 µM) |  |  |  | 
5 | COc1nc2ccc(N)cc2cc1C(c1ccccc1)C(O)(CCN(C)C)c1cccc2ccccc12 (single isomer, unassigned) [Compound 16] |  | 7.8 mg/L (≈ 15.9 µM) |  | 24.6 mg/L (≈ 50 µM) |  |  |  |  | 43.8 mg/L (≈ 89.1 µM) |  |  |  | 31.0 mg/L (≈ 63.1 µM) |  |  |  | 
6 | COc1nc2ccc(CN)cc2cc1C(c1ccccc1)C(O)(CCN(C)C)c1cccc2ccccc12 (single isomer, unassigned) [Compound 17] |  | 0.4 mg/L (≈ 0.791 µM) |  | 8.0 mg/L (≈ 15.8 µM) |  |  | 3.6 mg/L (≈ 7.12 µM) |  | 8.0 mg/L (≈ 15.8 µM) |  |  |  |  |  |  |  | 
7 | COc1nc2ccc(/C=N/O)cc2cc1C(c1ccccc1)C(O)(CCN(C)C)c1cccc2ccccc12 (single isomer, unassigned) [Compound 23] | 8.24 mg/L (≈ 15.9 µM) | 0.3 mg/L (≈ 0.577 µM) | 52 mg/L (≈ 100 µM) | 0.3 mg/L (≈ 0.577 µM) | 18.4 mg/L (≈ 35.5 µM) |  | 7.3 mg/L (≈ 14 µM) | 8.24 mg/L (≈ 15.9 µM) | 6.5 mg/L (≈ 12.5 µM) |  |  | 187 °C |  |  |  |  | 
8 | COc1nc2ccc(CNC(C)=O)cc2cc1C(c1ccccc1)C(O)(CCN(C)C)c1cccc2ccccc12 (single isomer, unassigned) [Compound 27] |  |  |  |  |  | 34.6 mg/L (≈ 63.2 µM) | 21.8 mg/L (≈ 39.8 µM) |  |  |  |  | 203 °C |  | 4.4 mg/L (≈ 8.03 µM) | 8.7 mg/L (≈ 15.9 µM) |  | 
9 | COc1nc2ccc(C(=O)N(C)C)cc2cc1C(c1ccccc1)C(O)(CCN(C)C)c1cccc2ccccc12 (single isomer, unassigned) [Compound 28] |  |  |  |  |  | 43.5 mg/L (≈ 79.4 µM) | 3.5 mg/L (≈ 6.39 µM) |  |  |  |  |  |  | 0.1 mg/L (≈ 0.183 µM) | 10.9 mg/L (≈ 19.9 µM) |  | 
10 | COc1nc2ccc(C(=O)N3CCN(C)CC3)cc2cc1C(c1ccccc1)C(O)(CCN(C)C)c1cccc2ccccc12 (single isomer, unassigned) [Compound 31] |  |  |  |  |  | 38 mg/L (≈ 63 µM) | 4.8 mg/L (≈ 7.96 µM) |  |  |  |  | 195 °C |  | 0.4 mg/L (≈ 0.664 µM) | 10.7 mg/L (≈ 17.8 µM) |  | 
11 | COc1nc2ccc(N3CCOCC3)cc2cc1C(c1ccccc1)C(O)(CCN(C)C)c1ccccc1 (single isomer, unassigned) [Compound 36] |  | 8.1 mg/L (≈ 15.8 µM) |  | 51.2 mg/L (≈ 100 µM) |  |  |  |  | 51.2 mg/L (≈ 100 µM) | 40.6 mg/L (≈ 79.3 µM) | 51.2 mg/L (≈ 100 µM) | 190 °C |  |  |  | 51.2 mg/L (≈ 100 µM) | 
12 | C=Cc1ccc2nc(OC)c(C(c3ccccc3)C(O)(CCN(C)C)c3cccc4ccccc34)cc2c1 (stereo not drawn) [Compound 9] | 50.3 mg/L (≈ 100 µM) |  | 50.3 mg/L (≈ 100 µM) |  | 50.3 mg/L (≈ 100 µM) | 50.3 mg/L (≈ 100 µM) | 0.2 mg/L (≈ 0.398 µM) | 50.3 mg/L (≈ 100 µM) |  |  |  |  |  | 0.003 mg/L (≈ 0.00597 µM) | 0.3 mg/L (≈ 0.597 µM) |  | 
13 | COc1nc2ccc(CN)cc2cc1C(c1ccccc1)C(O)(CCN(C)C)c1cccc2ccccc12 (stereo not drawn) [Compound 18] |  | 0.4 mg/L (≈ 0.791 µM) |  | 3.6 mg/L (≈ 7.12 µM) |  |  |  |  | 8.0 mg/L (≈ 15.8 µM) | 6.37 mg/L (≈ 12.6 µM) | 17.94 mg/L (≈ 35.5 µM) |  | 1.6 mg/L (≈ 3.16 µM) |  |  | 8.01 mg/L (≈ 15.8 µM) | 8.01 mg/L (≈ 15.8 µM)
14 | COc1nc2ccc(CN)cc2cc1C(c1ccccc1)C(O)(CCN(C)C)c1cccc2ccccc12 (stereo not drawn) [Compound 19] | 8.01 mg/L (≈ 15.8 µM) | 1.6 mg/L (≈ 3.16 µM) |  |  |  | 8 mg/L (≈ 15.8 µM) |  | 8.01 mg/L (≈ 15.8 µM) |  |  | 40.17 mg/L (≈ 79.4 µM) |  | 8.0 mg/L (≈ 15.8 µM) |  | 1.8 mg/L (≈ 3.56 µM) | 40.17 mg/L (≈ 79.4 µM) | 
